The values below come from patent US20230109801A1 (Blue Oak Pharmaceuticals, Inc., priority 2020, published 2023).

Structures can show the parent of a compound that is named as a salt. Where only a bound is given, the exact number is not on record here.

For the experiment, the system named is mice. In words: SmartCube in vivo neuropharmacological behavioral assay. The conditions noted are these: for minimal effective dose: Mus musculus, ip, dose having 50% or more total activity in SmartCube, i.p., read-out: MED (minimal effective dose); for AD: antidepressant, percent probability / AG: analgesic, percent probability / AP: antipsychotic, percent probability / AX: anxiolytic, percent probability / CE: cognitive enhancer, percent probability / HA: hallucinogenic, percent probability / MS: mood stabilizer, percent probability / PS, percent probability / SD: sedative hypnotic, percent probability / SE: side effects, percent probability / UN: uncharacterized CNS activity, percent probability / XG: anxiogenic, percent probability: SmartCube, i.p. 15 min before test, at the MED. As for the experimental part: The compounds were evaluated for their CNS related properties (e.g., the treatment, prevention or diagnosis of CNS or CNS-related disorders and/or amelioration of symptoms) using neuropharmacological screening methods described in S. L. Roberts et al., Front. Neurosci. 2011, 5:103 (hereinafter referred to as “Roberts,” the contents of which are incorporated herein by reference in their entirety).
According to Roberts, intact systems are useful in detecting improvement in disease-relevant endpoints, because psychiatric diseases generally result from disorders of cell-cell communication or circuitry. The endpoints are typically behavioral in nature, often requiring human observation and interpretation. In order to test multiple compounds for behavioral effects relevant to neurological and psychiatric diseases and disorders, PsychoGenics, Inc. (Paramus, N.J. “PGI”) developed SmartCube®, an automated system in which behaviors of compound-treated mice are captured by digital video and analyzed with computer algorithms to facilitate testing of multiple compounds for behavioral effects relevant to psychiatric disease. (D. Brunner et al., Drug Discov. Today 2002, 7:S107-S112; Alexandrov et al., Eur. J. Pharmacol. 2015, 753:127-134; the contents of each of which are incorporated herein by reference in their entirety).
The SmartCube® system is described in Example 2.2 of U.S. Pat. No. 9,758,529 and Example 289 of WIPO Publication No. WO2018/023070, the contents of each of which are incorporated herein by reference in their entirety.
According to the present disclosure, compounds identified may be evaluated using the SmartCube® system. The results of such analysis correlate certain patterns or combinations of behaviors to CNS effects along a percent probability scale of 0-100 where zero (O) reflects the limit of quantitation (LOQ).
The compounds of the present disclosure were evaluated for their CNS related properties (e.g., the treatment, prevention or diagnosis of CNS or CNS-related disorders and/or amelioration of symptoms) using neuropharmacological screening methods described in S. L. Roberts et al., Front. Neurosci. 2011, 5:103 (hereinafter referred to as “Roberts,” the contents of which are incorporated herein by reference in their entirety).
The SmartCube® system described herein was utilized to compare the behavioral signature of a test compound to a database of behavioral signatures obtained using a large set of diverse reference compounds (including but not limited to antipsychotics, anxiolytics, antidepressants and bipolar disorder medicine), thereby predicting the neuropharmacological effects of a test compound by similarity to major classes of compounds. It produces an activity signature indicating the probability that the activity of the test compound at the administered dose matches a given class of neuropharmacological agents. The test compound is simultaneously compared against multiple classes of agents; thus, a separate probability is generated for each behavioral effect measured (such as but not limited to anxiolytic activity and analgesic activity).
The compounds of the present disclosure were dissolved in a mixture of Pharmasolve™ (N-methyl-2-pyrrolidone (NMP)) and were injected i.p. 15 min. before the behavioral test. For each compound, injections were administered at different dose levels (e.g., 0.3, 1, 3, 10 and 30 mg per kg (mpk)). A compound's minimal effective dose (MED; see Table 3) is a measure of the compound's potency. The MED was defined as the dose (in mpk) having 50% or more total activity in SmartCube®. For each behavioral effect measured, results at the MED are presented. CNS activities of the compounds were recorded (see Table 2). In Table 1, a key to the percent probabilities (probability×100) for each behavioral effect (“X”) are defined provided, where LOQ is the limit of quantification.

For orientation: minimal effective dose means the lowest level tested that produced the effect sought.

Turning to `CC1CC2c3ccccc3C1N2C(C)C` (centres unmarked) [Compound 51, 9-Methyl-11-(propan-2-yl)-11-azatricyclo[6.2.1.0^2,7]undeca-2,4,6-tri ene hydrochloride], the minimal effective dose is 1 to 10 mg/kg; the “AD: antidepressant, percent probability” value is on record as “++++ (50% ≤ X <1 00%)”; the “AG: analgesic, percent probability” value is on record as “+ (LOQ ≤ X < 5%)”; the “AP: antipsychotic, percent probability” value was “+ (LOQ ≤ X < 5%)”. Also, the “AX: anxiolytic, percent probability” value is on record as “++ (5% ≤ X < 25%)”; the “CE: cognitive enhancer, percent probability” value was “+ (LOQ ≤ X < 5%)”; the “HA: hallucinogenic, percent probability” value is given as “++ (5% ≤ X < 25%)”; the “MS: mood stabilizer, percent probability” value is recorded as “+ (LOQ ≤ X < 5%)”. For the same molecule, the “PS, percent probability” value is recorded as “++ (5% ≤ X < 25%)”; the “SD: sedative hypnotic, percent probability” value (shortened to “SD … percent probability”) was “+ (LOQ ≤ X < 5%)”; the “SE: side effects, percent probability” value is listed as “+ (LOQ ≤ X < 5%)”; the “UN: uncharacterized CNS activity, percent probability” value (from here on “UN … percent probability”) was “+ (LOQ ≤ X < 5%)”. The “XG: anxiogenic, percent probability” value is on record as “+ (LOQ ≤ X < 5%)”.

`COc1cccc2c1C1CCC2N1C(C)C` (centres unmarked) [Compound 18, 3-Methoxy-11-(propan-2-yl)-11-azatricyclo[6.2.1.0^2,7]undeca-2,4,6-triene hydrochloride]: the minimal effective dose lay within 10 to 30 mg/kg; the “AD: antidepressant, percent probability” value is reported as “++ (5% ≤ X < 25%)”; the “AG: analgesic, percent probability” value is “+ (LOQ ≤ X < 5%)”; the “AP: antipsychotic, percent probability” value is “+ (LOQ ≤ X < 5%)”. Also, the “AX: anxiolytic, percent probability” value is on record as “++ (5% ≤ X < 25%)”; the “CE: cognitive enhancer, percent probability” value was “++ (5% ≤ X < 25%)”; the “HA: hallucinogenic, percent probability” value is on record as “+ (LOQ ≤ X < 5%)”; the “MS: mood stabilizer, percent probability” value is reported as “+ (LOQ ≤ X < 5%)”. The “PS, percent probability” value is recorded as “+ (LOQ ≤ X < 5%)”; the “SD … percent probability” value is given as “++ (5% ≤ X < 25%)”; the “SE: side effects, percent probability” value is listed as “+++ (25% ≤ X < 50%)”; the “UN … percent probability” value is given as “+ (LOQ ≤ X < 5%)”. Further, the “XG: anxiogenic, percent probability” value was “+ (LOQ ≤ X < 5%)”.

For the molecule `CC1C(C)C2c3ccccc3C1N2C(C)C` (centres unmarked) [Compound 49, 9,10-Dimethyl-11-(propan-2-yl)-11-azatricyclo[6.2.1.0^2,7]undeca-2,4,6-triene hydrochloride], the minimal effective dose fell in the range of 10 to 30 mg/kg.

In the case of `CCC(C)N1C2C=CC1c1ccccc12` (centres unmarked) [Compound 55, 11-(Butan-2-yl)-11-azatricyclo[6.2.1.0^2,7]undeca-2,4,6,9-tetraene hydrochloride], the minimal effective dose is 10 to 30 mg/kg; the “AD: antidepressant, percent probability” value is “+++ (25% ≤ X < 50%)”; the “AG: analgesic, percent probability” value is reported as “+ (LOQ ≤ X < 5%)”; the “AP: antipsychotic, percent probability” value is “+ (LOQ ≤ X < 5%)”. The “AX: anxiolytic, percent probability” value is reported as “++ (5% ≤ X < 25%)”; the “CE: cognitive enhancer, percent probability” value is given as “+ (LOQ ≤ X < 5%)”; the “HA: hallucinogenic, percent probability” value is given as “+ (LOQ ≤ X < 5%)”; the “MS: mood stabilizer, percent probability” value is recorded as “+ (LOQ ≤ X < 5%)”. Besides, the “PS, percent probability” value was “++ (5% ≤ X < 25%)”; the “SD … percent probability” value is “+ (LOQ ≤ X < 5%)”; the “SE: side effects, percent probability” value is listed as “+ (LOQ ≤ X < 5%)”; the “UN … percent probability” value was “+++ (25% ≤ X < 50%)”. Moreover, the “XG: anxiogenic, percent probability” value is listed as “+ (LOQ ≤ X < 5%)”.

Consider `COCC(C)N1C2CCC1c1ccccc12` (centres unmarked) [Compound 46, 11-(1-Methoxypropan-2-yl)-11-azatricyclo[6.2.1.0^2,7]undeca-2,4,6-triene hydrochloride], for which the minimal effective dose was more than 30 mg/kg; the “AD: antidepressant, percent probability” value is recorded as “+ (LOQ ≤ X < 5%)”; the “AG: analgesic, percent probability” value is recorded as “++ (5% ≤ X < 25%)”; the “AP: antipsychotic, percent probability” value is “+ (LOQ ≤ X < 5%)”. Moreover, the “AX: anxiolytic, percent probability” value was “+ (LOQ ≤ X < 5%)”; the “CE: cognitive enhancer, percent probability” value was “+ (LOQ ≤ X < 5%)”; the “HA: hallucinogenic, percent probability” value was “+ (LOQ ≤ X < 5%)”; the “MS: mood stabilizer, percent probability” value is recorded as “+ (LOQ ≤ X < 5%)”. Besides, the “PS, percent probability” value is recorded as “+ (LOQ ≤ X < 5%)”; the “SD … percent probability” value is “+ (LOQ ≤ X < 5%)”; the “SE: side effects, percent probability” value was “+ (LOQ ≤ X < 5%)”; the “UN … percent probability” value is “+ (LOQ ≤ X < 5%)”. The “XG: anxiogenic, percent probability” value is listed as “+ (LOQ ≤ X < 5%)”.

Regarding `CC(C)C(C)N1C2C=CC1c1ccccc12` (centres unmarked) [Compound 58, 11-(3-Methylbutan-2-yl)-11-azatricyclo[6.2.1.0^2,7]undeca-2,4,6,9-tetraene hydrochloride], the minimal effective dose is more than 30 mg/kg; the “AD: antidepressant, percent probability” value is on record as “++ (5% ≤ X < 25%)”; the “AG: analgesic, percent probability” value was “+ (LOQ ≤ X < 5%)”; the “AP: antipsychotic, percent probability” value is reported as “+ (LOQ ≤ X < 5%)”. The “AX: anxiolytic, percent probability” value is on record as “+ (LOQ ≤ X < 5%)”; the “CE: cognitive enhancer, percent probability” value is reported as “+ (LOQ ≤ X < 5%)”; the “HA: hallucinogenic, percent probability” value was “+ (LOQ ≤ X < 5%)”; the “MS: mood stabilizer, percent probability” value is recorded as “+ (LOQ ≤ X < 5%)”. For the same molecule, the “PS, percent probability” value was “+ (LOQ ≤ X < 5%)”; the “SD … percent probability” value is reported as “+ (LOQ ≤ X < 5%)”; the “SE: side effects, percent probability” value was “+ (LOQ ≤ X < 5%)”; the “UN … percent probability” value is given as “+ (LOQ ≤ X < 5%)”. The “XG: anxiogenic, percent probability” value was “+ (LOQ ≤ X < 5%)”.

In the case of `C1=CC2NC1c1ccccc12` [Compound 52, 11-Azatricyclo[6.2.1.0^2,7]undeca-2,4,6,9-tetraene hydrochloride], the minimal effective dose is more than 30 mg/kg; the “AD: antidepressant, percent probability” value is on record as “+ (LOQ ≤ X < 5%)”; the “AG: analgesic, percent probability” value is on record as “+ (LOQ ≤ X < 5%)”; the “AP: antipsychotic, percent probability” value is “+ (LOQ ≤ X < 5%)”. For the same molecule, the “AX: anxiolytic, percent probability” value is given as “+ (LOQ ≤ X < 5%)”; the “CE: cognitive enhancer, percent probability” value is reported as “+ (LOQ ≤ X < 5%)”; the “HA: hallucinogenic, percent probability” value is on record as “+ (LOQ ≤ X < 5%)”; the “MS: mood stabilizer, percent probability” value is recorded as “+ (LOQ ≤ X < 5%)”. Besides, the “PS, percent probability” value is “+ (LOQ ≤ X < 5%)”; the “SD … percent probability” value is listed as “+ (LOQ ≤ X < 5%)”; the “SE: side effects, percent probability” value was “+ (LOQ ≤ X < 5%)”; the “UN … percent probability” value is reported as “+ (LOQ ≤ X < 5%)”. The “XG: anxiogenic, percent probability” value was “+ (LOQ ≤ X < 5%)”.

With `CCC(C)N1C2CCC1c1ccccc12` (centres unmarked) [Compound 44, 11-(Butan-2-yl)-11-azatricyclo[6.2.1.0^2,7]undeca-2,4,6-triene hydrochloride], the minimal effective dose was in the range of 1 to 10 mg/kg; the “AD: antidepressant, percent probability” value is “++++ (50% ≤ X <1 00%)”; the “AG: analgesic, percent probability” value is “+ (LOQ ≤ X < 5%)”; the “AP: antipsychotic, percent probability” value was “+ (LOQ ≤ X < 5%)”. Further, the “AX: anxiolytic, percent probability” value is recorded as “++ (5% ≤ X < 25%)”; the “CE: cognitive enhancer, percent probability” value is reported as “+ (LOQ ≤ X < 5%)”; the “HA: hallucinogenic, percent probability” value was “+ (LOQ ≤ X < 5%)”; the “MS: mood stabilizer, percent probability” value was “+ (LOQ ≤ X < 5%)”. Moreover, the “PS, percent probability” value is given as “++ (5% ≤ X < 25%)”; the “SD … percent probability” value was “+ (LOQ ≤ X < 5%)”; the “SE: side effects, percent probability” value was “+ (LOQ ≤ X < 5%)”; the “UN … percent probability” value is “+ (LOQ ≤ X < 5%)”. The “XG: anxiogenic, percent probability” value is given as “+ (LOQ ≤ X < 5%)”.
